# Biological target: recombinant human baculovirus-expressed cMET (Homo sapiens (Human), UniProt P08581)
# Assay: c-MET kinase assay (HTRF KinEASE)
# Type: biochemical
# Conditions: not given
row,Compound,IC50 [nM]
1,"O=C(Nc1ccc(Oc2cccn3nccc23)c(F)c1)C1CCN(c2ccc(F)cc2)C1=O (stereo not drawn) [Example 10, 1-(4-Fluoro-phenyl)-2-oxo-pyrrolidine-3-carboxylic acid [3-fluoro-4-(pyrazolo[1,5-a]pyridin-4-yloxy)-phenyl]-amide]",10 to 100

# Same assay, conditions: average of two or more determinations; read-out: c-MET IC50
row,IC50 [nM],Compound
1,< 10,"O=C(Nc1ccc(Oc2cccn3nccc23)cc1)c1cccn(-c2ccc(F)cc2)c1=O [Example 1, 1-(4-Fluoro-phenyl)-2-oxo-1,2-dihydro-pyridine-3-carboxylic acid [4-(pyrazolo[1,5-a]pyridin-4-yloxy)-phenyl]-amide]"
2,10 to 100,"O=C(Cc1ccc(F)cc1)NC(=S)Nc1ccc(Oc2cccn3nccc23)c(F)c1 [Example 6, 1-[2-(4-Fluoro-phenyl)-acetyl]-3-[3-fluoro-4-(pyrazolo[1,5-a]pyridin-4-yloxy)-phenyl]-thiourea]"
3,10 to 100,"O=C(Nc1ccc(Oc2cccn3nccc23)c(F)c1)c1c(I)ccn(-c2ccc(F)cc2)c1=O [Example 12, 1-(4-Fluoro-phenyl)-4-iodo-2-oxo-1,2-dihydro-pyridine-3-carboxylic acid [3-fluoro-4-(pyrazolo[1,5-a]pyridin-4-yloxy)-phenyl]-amide]"
4,1000 to 10000,"Cc1nn(-c2ccccc2)c(C)c1C(=O)Nc1ccc(Oc2cccn3nccc23)cc1 [Example 20, 3,5-Dimethyl-1-phenyl-1H-pyrazole-4-carboxylic acid [4-(pyrazolo[1,5-a]pyridin-4-yloxy)-phenyl]-amide]"
5,101 to 1000,"O=C(Nc1ccc(Oc2cccn3ncc(Cl)c23)c(F)c1)c1cccn(-c2ccc(F)cc2)c1=O [Example 23, 1-(4-Fluoro-phenyl)-2-oxo-1,2-dihydro-pyridine-3-carboxylic acid [4-(3-chloro-pyrazolo[1,5-a]pyridin-4-yloxy)-3-fluoro-phenyl]-amide]"
6,< 10,"O=C(Nc1ccc(Oc2cc(Br)cn3nccc23)c(F)c1)c1cccn(-c2ccc(F)cc2)c1=O [Example 24, (4-Fluoro-phenyl)-2-oxo-1,2-dihydro-pyridine-3-carboxylic acid [4-(6-bromo-pyrazolo[1,5-a]pyridin-4-yloxy)-3-fluoro-phenyl]-amide]"
7,< 10,"Cn1cc(-c2cc(Oc3ccc(NC(=O)C4(C(=O)Nc5ccc(F)cc5)CC4)cc3F)c3ccnn3c2)cn1 [Example 32, Cyclopropane-1,1-dicarboxylic acid {3-fluoro-4-[6-(1-methyl-1H-pyrazol-4-yl)-pyrazolo[1,5-a]pyridin-4-yloxy]-phenyl}-amide(4-fluoro-phenyl)-amide]"
8,< 10,"CN1CCN(c2ccc(-c3cc(Oc4ccc(NC(=O)C5(C(=O)Nc6ccc(F)cc6)CC5)cc4F)c4ccnn4c3)cn2)CC1 [Example 36, Cyclopropane-1,1-dicarboxylic acid (3-fluoro-4-{6-[6-(4-methyl-piperazin-1-yl)-pyridin-3-yl]-pyrazolo[1,5-a]pyridin-4-yloxy}-phenyl)-amide (4-fluoro-phenyl)-amide]"
9,< 10,"CN1CCN(c2cc(Oc3ccc(NC(=O)c4cccn(-c5ccc(F)cc5)c4=O)cc3F)c3ccnn3c2)CC1 [Example 38, 1-(4-Fluoro-phenyl)-2-oxo-1,2-dihydro-pyridine-3-carboxylic acid {3-fluoro-4-[6-(4-methyl-piperazin-1-yl)-pyrazolo[1,5-a]pyridin-4-yloxy]-phenyl}-amide]"
10,< 10,"Cc1noc(C)c1-c1cc(Oc2ccc(NC(=O)c3cccn(-c4ccc(F)cc4)c3=O)cc2F)c2ccnn2c1 [Example 48, 1-(4-Fluoro-phenyl)-2-oxo-1,2-dihydro-pyridine-3-carboxylic acid{4-[6-(3,5-dimethyl-isoxazol-4-yl)-pyrazolo[1,5-a]pyridin-4-yloxy]-3-fluoro-phenyl}-amide]"
11,< 10,"CCn1cc(C(=O)Nc2ccc(Oc3cc(-c4cnco4)cn4nccc34)c(F)c2)c(=O)n(-c2ccc(F)cc2)c1=O [Example 52, 1-Ethyl-3-(4-fluoro-phenyl)-2,4-dioxo-1,2,3,4-tetrahydro-pyrimidine-5-carboxylic acid[3-fluoro-4-(6-oxazol-5-yl-pyrazolo[1,5-a]pyridin-4-yloxy)-phenyl]-amide]"
12,< 10,"O=C(Nc1ccc(Oc2cc(-c3cnsc3)cn3nccc23)c(F)c1)c1cccn(-c2ccc(F)cc2)c1=O [Example 53, 1-(4-Fluoro-phenyl)-2-oxo-1,2-dihydro-pyridine-3-carboxylic acid[3-fluoro-4-(6-isothiazol-4-yl-pyrazolo[1,5-a]pyridin-4-yloxy)-phenyl]-amide]"

# Further lines, the compound ahead of its results:
row,Compound,IC50 [nM]
1,"1-Methyl-5-trifluoromethyl-1H-pyrazole-4-carboxylic acid [4-(pyrazolo[1, 5-a]pyridin-4-yloxy)-phenyl]-amide [Example 17]",1000 to 10000
2,"O=C(Nc1ccc(Oc2cccn3nccc23)c(F)c1)c1cccn(-c2ccc(F)cc2)c1=O [Example 4, 1-(4-Fluoro-phenyl)-2-oxo-1,2-dihydro-pyridine-3-carboxylic acid [3-fluoro-4-(pyrazolo[1,5-a]pyridin-4-yloxy)-phenyl]-amide]",< 10
3,"O=C(Nc1ccc(F)cc1)C1(C(=O)Nc2ccc(Oc3cccn4nccc34)c(F)c2)CC1 [Example 5, Cyclopropane-1,1-dicarboxylic acid (4-fluoro-phenyl)-amide [3-fluoro-4-(pyrazolo[1,5-a]pyridin-4-yloxy)-phenyl]-amide]",< 10
4,"O=C(Nc1ccc(Oc2cccn3nccc23)c(F)c1)c1cccn(Cc2ccc(F)cc2)c1=O [Example 8, 1-(4-Fluoro-benzyl)-2-oxo-1,2-dihydro-pyridine-3-carboxylic acid [3-fluoro-4-(pyrazolo[1,5-a]pyridin-4-yloxy)-phenyl]-amide]",101 to 1000
5,"O=C(Nc1ccc(Oc2cccn3nccc23)c(F)c1)c1cccn(Cc2cccc(F)c2)c1=O [Example 9, 1-(3-Fluoro-benzyl)-2-oxo-1,2-dihydro-pyridine-3-carboxylic acid [3-fluoro-4-(pyrazolo[1,5-a]pyridin-4-yloxy)-phenyl]-amide]",101 to 1000
6,"O=C(Nc1ccc(Oc2cccn3nccc23)c(F)c1)c1c[nH]c(=O)n(-c2ccc(F)cc2)c1=O [Example 11, 3-(4-Fluoro-phenyl)-2,4-dioxo-1,2,3,4-tetrahydro-pyrimidine-5-carboxylic acid [3-fluoro-4-(pyrazolo[1,5-a]pyridin-4-yloxy)-phenyl]-amide]",10 to 100
7,"CCOc1ccn(-c2ccc(F)cc2)c(=O)c1C(=O)Nc1ccc(Oc2cccn3nccc23)c(F)c1 [Example 13, 4-Ethoxy-1-(4-fluoro-phenyl)-2-oxo-1,2-dihydro-pyridine-3-carboxylic acid [3-fluoro-4-(pyrazolo[1,5-a]pyridin-4-yloxy)-phenyl]-amide]",< 10
8,"CCOCCOc1ccn(-c2ccc(F)cc2)c(=O)c1C(=O)Nc1ccc(Oc2cccn3nccc23)c(F)c1 [Example 14, 4-(2-Ethoxy-ethoxy)-1-(4-fluoro-phenyl)-2-oxo-1,2-dihydro-pyridine-3-carboxylic acid [3-fluoro-4-(pyrazolo[1,5-a]pyridin-4-yloxy)-phenyl]-amide]",10 to 100
9,"CCNc1ccn(-c2ccc(F)cc2)c(=O)c1C(=O)Nc1ccc(Oc2cccn3nccc23)c(F)c1 [Example 15, 4-Ethylamino-1-(4-fluoro-phenyl)-2-oxo-1,2-dihydro-pyridine-3-carboxylic acid [3-fluoro-4-(pyrazolo[1,5-a]pyridin-4-yloxy)-phenyl]-amide]",10 to 100
10,"Cc1c(C(=O)Nc2ccc(Oc3cccn4nccc34)cc2)cnn1-c1ccc(F)cc1 [Example 18, 1-(4-Fluoro-phenyl)-5-methyl-1H-pyrazole-4-carboxylic acid [4-(pyrazolo[1,5-a]pyridin-4-yloxy)-phenyl]-amide]",1000 to 10000
11,"O=C(Nc1ccc(Oc2cccn3nccc23)cc1)c1cnn(-c2ccccc2)c1C(F)(F)F [Example 19, 1-Phenyl-5-trifluoromethyl-1H-pyrazole-4-carboxylic acid [4-(pyrazolo[1,5-a]pyridin-4-yloxy)-phenyl]-amide]",1000 to 10000
12,"COc1cc(Oc2ccc(NC(=O)c3cccn(-c4ccc(F)cc4)c3=O)cc2F)c2ccnn2c1 [Example 22, 1-(4-Fluoro-phenyl)-2-oxo-1,2-dihydro-pyridine-3-carboxylic acid [3-fluoro-4-(6-methoxy-pyrazolo[1,5-a]pyridin-4-yloxy)-phenyl]-amide]",101 to 1000
13,"CN1CCN(c2ccc(-c3cc(Oc4ccc(NC(=O)c5cccn(-c6ccc(F)cc6)c5=O)cc4F)c4ccnn4c3)cn2)CC1 [Example 37, 1-(4-Fluoro-phenyl)-2-oxo-1,2-dihydro-pyridine-3-carboxylic acid (3-fluoro-4-{6-[6-(4-methyl-piperazin-1-yl)-pyridin-3-yl]-pyrazolo[1,5-a]pyridin-4-yloxy}-phenyl)-amide]",< 10
14,"Cn1nccc1-c1cc(Oc2ccc(NC(=O)c3cccn(-c4ccc(F)cc4)c3=O)cc2F)c2ccnn2c1 [Example 41, 1-(4-Fluoro-phenyl)-2-oxo-1,2-dihydro-pyridine-3-carboxylic acid{3-fluoro-4-[6-(2-methyl-2H-pyrazol-3-yl)-pyrazolo[1,5-a]pyridine-4-yloxy]-phenyl}-amide]",< 10
15,"O=C(Nc1ccc(Oc2cc(C3CCOCC3)cn3nccc23)c(F)c1)c1cccn(-c2ccc(F)cc2)c1=O [Example 47, 1-(4-Fluoro-phenyl)-2-oxo-1,2-dihydro-pyridine-3-carboxylic acid{3-fluoro-4-[6-(tetrahydro-pyran-4-yl)-pyrazolo[1,5-a]pyridin-4-yloxy]-phenyl}-amide]",< 10
16,"Cc1ccc(C(=O)Nc2ccc(Oc3cc(C4CCS(=O)(=O)CC4)cn4nccc34)c(F)c2)c(=O)n1-c1ccc(F)cc1 [Example 50, 1-(4-Fluoro-phenyl)-6-methyl-2-oxo-1,2-dihydro-pyridine-3-carboxylic acid {4-[6-(1,1-dioxo-hexahydro-thiopyran-4-yl)-pyrazolo[1,5-a]pyridin-4-yloxy]-3-fluoro-phenyl}-amide]",< 10

# Same assay, conditions: read-out: c-MET IC50
row,Compound,IC50 [nM]
1,"COc1ccc(-c2cc(Oc3ccc(NC(=O)c4cccn(-c5ccc(F)cc5)c4=O)cc3F)c3ccnn3c2)cn1 [Example 35, 1-(4-Fluoro-phenyl)-2-oxo-1,2-dihydro-pyridine-3-carboxylic acid {3-fluoro-4-[6-(6-methoxy-pyridin-3-yl)-pyrazolo[1,5-a]pyridin-4-yloxy]-phenyl}-amide]",< 10
